Results on two molecules are retold here after US11846640B2, “Identification of anticoagulants in a sample” (DSM IP Assets B.V., priority 2013, dated 2023).

Holding throughout (type): biochemical, human
Assay [1] has as its system normal plasma pool (NPP). Description: PiCT Method 4 (inverted PiCT) clotting time on ACL TOP 500. As to conditions: for Clotting time: Table 10A, PiCT Method 4, NPP spiked, mean n = 4; for PiCT ® method 4 clotting time: Table 11. Here is the method: The present invention is in one aspect directed to the use of a clotting assay, in particular the PiCT® testing method on a detection system such as e.g. the ACL TOP® 500 analyzer and to a method to quantitatively and qualitatively detect anticoagulants in a sample, e.g. blood or plasma. […] PiCT® Method 4 or PiCT® inverted includes that first the start reagent is added to the sample, the mixture allowed to proceed according to the manufacturer's instructions followed by addition of the activator, i.e. a reversed order compared to standard PiCT® (see above). PiCT® Method 1 to 4 is described in more detail in the Examples.
(§1) The 4 methods (see above) are in more detail described in the Examples. Specific pipetting schemes were designed using NPP spiked with incremental amounts of anticoagulants in order to achieve high reproducibility of the test system, which is required for drug identification including use in a POC system. With regards to the ACL TOP® 500 analyzer, PiCT® Method 1 to 4 has been established as follows: • PiCT® Method 1: 50 μl of plasma is incubated for 180 sec with 50 μl of reagent 1 and afterwards 50 μl of reagent 2 is added and the time to clot is recorded on the ACL TOP® 500 (i.e. pipetting scheme: P-50/A-50/I-180/50-S).
After calculation of the RR for the different kind of anticoagulants (see Example 1) samples of NPP spiked with incremental amounts of anticoagulants were used in the ACL TOP® 500, wherein 45 μl start reagent was incubated with 140 μl plasma for 60 sec. The time to clot was recorded after addition of 40 μl of activator (i.e. so-called inverted PiCT®).

A further assay deals with plasma samples. Description: aPTT (HemosIL aPTT SP) clotting time. Particulars: for Clotting time with aPTT: Table 6, spiked plasma, mean. How it is done: In order to address the above question, i.e. to determine the nature of an anticoagulant in a sample, a combination of several methods has to be performed, including PiCT® Method 1, PiCT® Method 4, aPTT (HemosIL™ aPTT SP), PT (HemosIL™ PT recombiplastin), and sometimes even a modified PiCT® Method 1 wherein polybrene has been added. In order to simulate this, plasma samples spiked with different levels of anticoagulants were analyzed using the ACL TOP® 500 analyzer. For each drug, a specific pattern was obtained, i.e. clotting times within the RR and clotting times above the RR, depending on the used testing method, which is unique at least for the class of anticoagulant or even for a specific anticoagulant.

Assay [2] relates to normal plasma pool (NPP). Briefly: PiCT Method 1 (standard Pefakit PiCT) clotting time on ACL TOP 500. Particulars: for Clotting time with PiCT ® Method 1: spiked plasma.
From the text: As described by Korte et al. (supra) or in EP 1240528, Pefakit® PiCT® is a functional clotting assay based on the direct activation of the prothrombinase complex which results in a fine-tuned analytical output directly proportional to the final anticoagulant activity of the factor Xa or factor IIa inhibitors (see Calatzis, Haemostasis 2000, 30:172-174). To perform the Pefakit® PiCT® test (referred to herein as standard “PiCT® or PiCT® Method 1), a defined amount of PiCT® activator (=reagent 1) is added to a sample, such as, e.g., plasma. The mixture is allowed to proceed at 37° C. for a specific period of time. The Start reagent (=reagent 2) is then added to the mixture and the time required for clot formation is measured. The presence of anticoagulants in the samples dose-dependently prolongs the time to clot. Pefakit® PiCT® is adapted to laboratory instruments based on mechanical or optical detection systems, including but not limited to ACL TOP® family (Instrumentation Laboratory), preferably ACL TOP® 500, STA Compact® series (Stago) or the BCS® XP series (Siemens).
as §1, with “P-50/A-50/I-180/50-S). This method is in particularly useful for detection of UFH, LMWH or hirudin. • PiCT® Method 2: P-75/A-65/I-180/35-S on the ACL TOP® 500 or P-80/A-65/I-180/40-S on the STA Compact® or P-75/A-65/I-180/S-40 on the BCS® XP. This method is in particularly useful for fondaparinux. • PiCT® Method 3: P-90/A-70/I-180/40-S on the ACL TOP® 500 or STA Compact®, or P-70/A-60/I-180/45-S on the BCS® XP. This method is in particularly useful for dabigatran or argatroban. • PiCT® Method 4: P-140/S-45/I160/A-40 on the ACL TOP® 500 or STA Compact®, or P-125/S-45/I-150/A-40 on the BCS® XP. This method is in particularly useful for rivaroxaban or apixaban.” for “P-50/A-50/I-180/50-S).”
With the normal PiCT®, i.e. PiCT® Method 1, wherein 50 μl of plasma is mixed with the same amount of reagent 1 (PiCT® activator), incubated for 180 sec and mixed with the same amount of reagent 2 (PiCT® start reagent) in a ACL TOP® 500 analyzer, the presence of NOACs cannot be determined in a sample. This is true even at high levels of said drugs in the sample, i.e. in the range of 300 ng/ml. Thus, in order to determine which NOAC is present in the sample, a combination of PiCT® Method 1 and PiCT® method 4 has to be used (see above for detailed description). To confirm this, spiked plasma samples with different levels of NOACs were prepared and the clotting time measured using first PiCT® Method 1 followed by PiCT® Method 4. […] In case of dabigatran present in the sample, both PiCT® Method 1 (which had to be adapted, i.e. PiCT® Method 3) and 4 are out of range as indicated in bold.

Take `CC1CNc2c(cccc2S(=O)(=O)N[C@@H](CCCNC(=N)N)C(=O)N2CC[C@@H](C)C[C@@H]2C(=O)O)C1` (stereo partly shown) [argatroban]: the “Clotting time with PiCT ® Method 4” value in the assay with normal plasma pool (NPP) [1] (Table 4, NPP spiked with 0.3 μg per ml) came to 147 s; in the assay on normal plasma pool (NPP) [1] (Table 6, spiked plasma, 0.3 μg, mean), 147.4 s; with normal plasma pool (NPP) [1] (Table 6, spiked plasma, 1.5 μg, mean), 300.0 s. Moreover, the “Clotting time with aPTT” value in the assay with plasma samples (0.3 μg) amounted to 61.7 s; in the assay with plasma samples (1.5 μg), 106.2 s. Moreover, the “Clotting time with PiCT ® Method 1” value in the assay with normal plasma pool (NPP) [2] (Table 6, 0.3 μg, mean) came out at 98.5 s; in the assay on normal plasma pool (NPP) [2] (Table 6, 1.5 μg, mean), 150.3 s.

Take `O=C(NC[C@H]1CN(c2ccc(N3CCOCC3=O)cc2)C(=O)O1)c1ccc(Cl)s1` [rivaroxaban]: the “Clotting time with PiCT ® Method 4” value in the assay on normal plasma pool (NPP) [1] (Table 4, NPP spiked with 20 ng per ml) turned out to be 70 s; with normal plasma pool (NPP) [1] (Table 4, NPP spiked with 35 ng per ml) it was 80 s; in the assay with normal plasma pool (NPP) [1] (Table 5, spiked plasma, 20 ng per ml), 70 s; in the assay on normal plasma pool (NPP) [1] (Table 5, spiked plasma, 35 ng per ml), 80 s; in the assay on normal plasma pool (NPP) [1] (Table 5, spiked plasma, 300 ng per ml) it was 162.1 s; in the assay on normal plasma pool (NPP) [1] (Table 6, spiked plasma, 50 ng, mean), 83.6 s. Besides, the “Clotting time with PiCT ® Method 4” value in the assay on normal plasma pool (NPP) [1] (Table 6, spiked plasma, 200 ng, mean) came to 132.8 s. In addition, the Clotting time worked out at 71 s with normal plasma pool (NPP) [1] (5 ng/ml); 83 s in the assay with normal plasma pool (NPP) [1] (10 ng/ml); 118 s in the assay on normal plasma pool (NPP) [1] (50 ng/ml); 149 s with normal plasma pool (NPP) [1] (100 ng/ml); 191 s in the assay with normal plasma pool (NPP) [1] (200 ng/ml); 220 s in the assay on normal plasma pool (NPP) [1] (300 ng/ml). Further, the Clotting time was 248 s with normal plasma pool (NPP) [1] (400 ng/ml), 270 s in the assay with normal plasma pool (NPP) [1] (500 ng/ml) and 278 s with normal plasma pool (NPP) [1] (600 ng/ml). Moreover, the “PiCT ® method 4 clotting time” value in the assay with normal plasma pool (NPP) [1] (spiked plasma, 20 ng/mL (wash off level)) is reported as 70 sec (n = 3); with normal plasma pool (NPP) [1] (spiked plasma, 35 ng/mL (wash off level)), 80 sec (n = 3). The results for the “Clotting time with aPTT” value with plasma samples (50 ng) and with plasma samples (200 ng) were 34.5 s and 49.6 s, respectively. Also, the “aPTT clotting time relative to reference range (RR)” value in the assay with plasma samples (only at higher doses, in the range of 200 ng or more) is “above the RR”. The “Clotting time with PiCT ® Method 1” value came out at 17 s with normal plasma pool (NPP) [2] (Table 5, 20 ng per ml (title: Method 3 for dabigatran)); 18 s in the assay with normal plasma pool (NPP) [2] (Table 5, 35 ng per ml (title: Method 3 for dabigatran)); 29.3 s in the assay with normal plasma pool (NPP) [2] (Table 5, 300 ng per ml (title: Method 3 for dabigatran)); 19.0 s in the assay on normal plasma pool (NPP) [2] (Table 6, 50 ng, mean); 25.5 s with normal plasma pool (NPP) [2] (Table 6, 200 ng, mean). Further, the “Clotting time with standard PiCT (Method 1) relative to reference range (RR)” value with normal plasma pool (NPP) [2] (concentrations in the range of about 300 ng/ml in the sample) is “in the RR”.
